Data as given in patent publication US7589099B2, “7-t-butoxyiminomethylcamptothecin conjugated in position 20 with integrin antagonists” (priority 2004, dated 2009).
Where two headings read alike, the source gives them in different places.

What was measured:
[1] = test system: NCI-H460 non-small cell lung carcinoma; test: Cytotoxicity, sulphorodamine B test, NCI-H460; assay type: cell-based, human; details: 2 h of treatment (followed by 72 h of recovery), read-out: NCI-H460 IC50 ± SD
Method: (§1) To evaluate the effect of the compound on survival cells, the sulphorodamine B test was used. To test the effects of the compounds on cell growth, PC3 human prostate carcinoma, A498 human renal carcinoma, A2780 human ovarian carcinoma cells and NCI-H460 non-small cell lung carcinoma were used. A2780, NCI-H460 and PC3 tumor cells were grown RPMI 1640 containing 10% fetal bovine serum (GIBCO), whereas A498 tumor cells were grown in EMEM containing 10% fetal bovine serum (GIBCO).
Tumor cells were seeded in 96-well tissue culture plates (Corning) at approximately 10% confluence and were allowed to attach and recover for at least 24 h. […] The plates were incubated for 72 h at 37° C. or 2 h followed by 72 h of recovery. At the end of the treatment, the plates were washed by removal of the surnatant and addition of PBS 3 times. 200 μl PBS and 50 μl of cold 80% TCA were added. The plates were incubated on ice for at least 1 h. […]
(§2) Then 200 μl Tris 10 mM were added, the plates were kept under stirring for 20 min. The survival cell was determined as optical density by a Multiskan spectrofluorimeter at 540 nm. The amount of cells killed was calculated as the percentage decrease in sulphorodamine B binding compared with control cultures.
(§3) The IC50 values were calculated with the “ALLFIT” program.

[2] = test system: A498 human renal carcinoma; test: cells; assay type: cell-based
Method: as §1
(§4) Tumor cells were seeded in 96-well tissue culture plates (Corning) at approximately 10% confluence and were allowed to attach and recover for at least 24 h. […] The plates were incubated for 72 h at 37° C. or 2 h followed by 72 h of recovery. At the end of the treatment, the plates were washed by removal of the surnatant and addition of PBS 3 times. 200 μl PBS and 50 μl of cold 80% TCA were added. The plates were incubated on ice for at least 1 h. TCA was removed, the plates were washed 3 times for immersion in distilled-water and dried on paper and at 40° C. for 5 min.
(§5) Then 200 μl of 0.4% sulphorodamine B in 1% acetic acid were added. The plates were incubated at room temperature for other 30 min. Sulphorodamine B was removed, the plates were washed for immersion in 1% acetic acid for 3 times, then they were dried on paper and at 40° C. for 5 min.
as §2, §3

[3] = test system: PC3 human prostate carcinoma; test: cells; assay type: cell-based
Method: as §1, §4, §5, §2, §3

[4] = test system: A2780 human ovarian carcinoma cells; test: cells; assay type: cell-based
Method: as §1, §4, §5, §2, §3

purified αvβ5 receptor = target: T1, purified αvβ5 receptor (Homo sapiens, UniProt P06756+P18084); test: Binding to integrin αvβ5 receptors ([125I]echistatin competition)
T1 construct: purchased Chemicon CC1020
Method: (§6) An aliquot of 100 μl was added to 96-well plates and incubated overnight at +4° C. Plates were washed once with buffer (50 mM Tris, pH 7.4, 100 mM NaCl, 2 mM CaCl2, 1 mM MgCl2, 1 mM MnCl2, 1% bovine serum albumin) and then incubated for another 2 hours at room temperature. Plates were washed twice with the same buffer and incubated for 3 hours at room temperature with the radioactive ligand [^125I]echistatin (Amersham Pharmacia Biotech) 0.15 nM in the presence of competition ligands. At the end of incubation, the wells were washed and the radioactivity determined using a gamma counter (Packard). Non-specific ligand binding was determined in the presence of excess cold echistatin (1 μM).
(§7) The IC50 parameter was elaborated using “ALLFIT” software.

purified αvβ3 receptor = target: T2, purified αvβ3 receptor (Homo sapiens, UniProt P05106+P06756); test: Binding to integrin αvβ3 receptors ([125I]echistatin competition)
T2 construct: purchased Chemicon CC1020
Method: as §6, with “7,4,” for “7.4,”, “0.05” for “0.15”, “Non-specific binding of the” for “Non-specific”, “ligand” for “ligand binding”
as §7

Q: Which IC50 ([1]; Homo sapiens, NCI-H460) does the source give for `CC[C@@]1(OC(=O)[C@@H](NC(=O)[C@H](CC(=O)O)NC(=O)OC(C)(C)C)C(C)C)C(=O)OCc2c1cc1n(c2=O)Cc2c-1nc1ccccc1c2/C=N/OC(C)(C)C` [ST2676, 20-O-Val-Asp-gimatecan] here?
A: The IC50 was 0.17 ± 0.02 µM.

Q: And the IC50 ([2]; Homo sapiens, A498, 72 h of treatment, read-out: A498 IC50 ± SD)?
A: Its IC50 is 0.047 ± 0.005 µM.

Q: What about the IC50 ([3]; Homo sapiens, 72 h of treatment, read-out: PC3 IC50 ± SD) of the same molecule?
A: Its IC50 is 0.038 ± 0.004 µM.

Q: And the IC50 ([4]; Homo sapiens, A2780, 72 h of treatment, read-out: A2780 IC50 ± SD)?
A: Its IC50 is < 0.00097 µM.

Q: Which IC50 (purified αvβ5 receptor; RGD peptides, [125I]echistatin 0.15 nM, read-out: αvβ5 IC50 ± SD) does the source give for `CN1C(=O)[C@@H](Cc2ccccc2)NC(=O)[C@H](CC(=O)O)NC(=O)CNC(=O)[C@H](CCCNC(=N)N)NC(=O)[C@@H]1Cc1ccc(CN)cc1` [ST2700] here?
A: Its IC50 is 0.0009 ± 5e-06 µM.

Q: For `CC[C@@]1(OC(=O)[C@@H](NC(=O)[C@@H](N)CC(=O)NCc2ccc(C[C@@H]3NC(=O)C(Cc4ccccc4)NC(=O)[C@H](CC(=O)O)NC(=O)CNC(=O)[C@H](CCCNC(=N)N)NC3=O)cc2)C(C)C)C(=O)OCc2c1cc1n(c2=O)Cc2c-1nc1ccccc1c2/C=N/OC(C)(C)C` (stereo partly drawn) [ST2671], which IC50 (purified αvβ3 receptor) is on record?
A: Its IC50 is 0.0228 ± 0.0012 µM.

Q: What about the IC50 (purified αvβ5 receptor) of the same molecule?
A: Its IC50 is 0.0542 ± 0.0005 µM.

Q: And the IC50 ([3]; 72 h)?
A: The IC50 was 0.35 ± 0.08 µM.

Q: And the “PC3 IC50 ± SD” value ([3]; 72 h of treatment)?
A: The value was “potent cytotoxicity”.

Q: With 20-O-Val-gimatecan [ST2678] as the molecule, how does the IC50 [1] read?
A: The IC50 was 0.025 ± 0.002 µM.

Q: Which results are given for `CC[C@@]1(OC(=O)[C@@H](NC(=O)CCC(=O)NCc2ccc(C[C@@H]3NC(=O)C(Cc4ccccc4)NC(=O)[C@H](CC(=O)O)NC(=O)CNC(=O)[C@H](CCCNC(=N)N)NC3=O)cc2)C(C)C)C(=O)OCc2c1cc1n(c2=O)Cc2c-1nc1ccccc1c2/C=N/OC(C)(C)C` (stereo partly drawn) [ST2670]?
A: IC50 (purified αvβ3 receptor): 0.0477 ± 0.0009 µM; IC50 (purified αvβ5 receptor): 0.074 ± 0.0008 µM; IC50 ([2]; 72 h): 1.6 ± 0.3 µM; IC50 ([3]; 72 h): 9.6 ± 0.6 µM; IC50 ([4]; 72 h): 0.4 µM
